The values that follow come from patent US8629169B2, “4-substituted-3-phenylsulfanylmethyl-bicyclo[3.1.0]hexane compounds as mGluR 2/3 antagonists” (Eli Lilly and Company, priority 2010, dated 2014).

The structures appear in SMILES notation.

One data set has as its system male NIH-Swiss mice. Put plainly: Forced-swim test in mice (mFST). The data set is classed as in vivo, mouse. As to conditions: p.o.
The next data set has as its system mice. Kind of data set: mFST alone and in combination with SSRI. It counts as in vivo, mouse. As to conditions: Example 12 10 mg/kg p.o.
In another data set the test system is male Wistar rats. Put plainly: Wakefulness and behavioral monitoring in rats (EEG/EMG/LMA). As to conditions: rat; for Locomotor Activity Intensity, mean difference from vehicle controls: averaged over the first 7 hr post-treatment; for Cumulative Time Awake 8-19 hours, mean difference from vehicle controls: rebound hypersomnolence measure. It counts as in vivo. The protocol: Representative compounds of the present invention are tested in rats for their ability to increase the amount of time in a state of wakefulness without undesired effects such as inhibition of REM sleep, waking motor impairment (disproportionate hyper- or hypolocomotion), and/or rebound hypersomnia Test animals are continuously monitored by electro-encephalograms (EEG), electromyograms (EMG), and motion to measure cumulative time awake, rebound hypersomnia, and locomotor activity intensity during wakefulness. Methods for such studies are known in the art (see for example methods described in Edgar D M, Seidel W F. Modafinil induces wakefulness without intensifying motor activity or subsequent rebound hypersomnolence in the rat. J Pharmacology & Experimental Therapeutics 1997; 283: 757-769; van Gelder R N, Edgar D M, Dement W C. Real-time automated sleep scoring: validation of a microcomputer-based system for mice. Sleep 1991, 14: 48-55; and Gross B A, Walsh C M, Turakhia A A, Booth V, Mashour G A, Poe G R. Open-source logic-based automated sleep scoring software using electrophysiological recordings in rats. J Neurosci Methods. 2009; 184(1):10-8.) Studies are conducted as follows:
Adult, male Wistar rats (approximately 270-300 g at time of surgery) are surgically fitted for chronic recording of EEG, EMG, body temperature, and motion as follows: Rats are surgically prepared with a cranial implant consisting of four stainless steel screws for EEG recording (two frontal [3.9 mm anterior from bregma, and ±2.0 mm mediolaterally] and two occipital [6.4 mm posterior from bregma, ±5.5 mm mediolaterally]), and with two Teflon-coated stainless steel wires for EMG recording (positioned under the nuchal trapezoid muscles). All leads are soldered to a miniature connector (Microtech, Boothwyn, Pa.) prior to surgery. The implant assembly is affixed to the skull by the combination of the stainless steel EEG recording screws, cyanoacrylate applied between the implant connector and skull, and dental acrylic. Body temperature and locomotor activity is monitored via a miniature transmitter (Minimitter PDT4000G, Philips Respironics, Bend, Oreg.) surgically placed into the abdomen. At least 3 weeks are allowed for recovery.
Each rat is housed individually within a microisolator cage modified with an inserted polycarbonate filter-top riser to allow more vertical headroom. A flexible cable that minimally restricts movement is connected at one end to a commutator affixed to the cage top and at the other end to the animal's cranial implant. Each cage is located within separate, ventilated compartments of a stainless steel sleep-wake recording chamber. Food and water are available ad libitum and the ambient temperature is maintained at about 23±1° C. A 24-hr light-dark cycle (LD 12:12) using fluorescent light is maintained throughout the study. Relative humidity averages approximately 50%. Animals are undisturbed for at least 30 hrs before and after each treatment.
The vehicle or one of the compound dose levels is administered pseudo-randomly such that no rat receives the same treatment twice, and no rat receives more than two of the 8 treatments in any one study. Each rat is removed from its cage for about a minute to be weighed and treated. At least 6 days “washout” period precede and follow each treatment.
Sleep and wakefulness discrimination may be automated (e.g., Van Gelder et al. 1991; Edgar et al. 1997, Winrow et al., 2010; Gross et al., 2009).

Data set [1] relates to mGlu2+/+ and mGlu2−/− mice. Kind of data set: mFST in mGlu2 knock-out mice and +/+ littermates. The conditions noted are these: 30 mg/kg, po, 120 min prior.
Procedure: Briefly, male NIH-Swiss mice (Harlan Sprague-Dawley, Indianapolis, Ind.) weighing between 25-30 g are used. Group housed animals are removed from the vivarium to the testing area in their own cages and allowed to adapt to the new environment for at least 1 hour before testing. […] Mice are placed in a cylinder (diameter: 10 cm; height: 25 cm) filled with 6 cm of water (22-25° C.) for 6 min. The duration of immobility during the last 4 min. of the 6 min. period of the test was scored. A mouse is recorded as immobile when floating motionless or making only those movements necessary to keep its head above water.
In other experiments, mice with receptor deletions (mGlu2 knock-out mice) are studied; these mice are bred by heterozygote×heterozygote breeding and used as littermates for −/− and +/+ mouse comparisons (Taconic Farms).
A short description of data set [2]: Brain and plasma exposure levels in the SSRI combination study. The conditions noted are these: combination with fluoxetine or citalopram versus alone.
Where [3] appears, read: citalopram experiment, citalopram 1 mg/kg i.p.
Where [4] appears, read: fluoxetine experiment, fluoxetine 10 mg/kg i.p.

For the compound `CC(C)OC(=O)OCOC(=O)[C@H]1[C@@H]2[C@H](O)[C@@H](CSc3ccc(F)c(F)c3)[C@@](N)(C(=O)OCOC(=O)OC(C)C)[C@H]12.Cl` [Example 12, Bis({[(1-methylethoxy)carbonyl]oxy}methyl)(1S,2R,3S,4S,5R,6R)-2-amino-3-{[(3,4-difluorophenyl)sulfanyl]methyl}-4-hydroxybicyclo[3.1.0]hexane-2,6-dicarboxylate hydrochloride], the “ED60 (mg/kg)” value in the data set on male NIH-Swiss mice (immobility, last 4 min of 6 min) was 12.0 (p.o.) mg/kg. Also, the “Maximal Decrease (1 − compound/control) * 100%” value in the data set on male NIH-Swiss mice (immobilization time) turned out to be 58.4%; in the data set on mice (setting [3]), 20.9%; with mice (setting [4]), 24.5%. The “Immobilization Time” value was 140 s in the data set with mice (setting [3]) and 130 s in the data set on mice (setting [4]). Moreover, the “Cumulative Time Awake first 7 hours, mean difference from vehicle controls” value in the data set with male Wistar rats (10 mg/kg PO) stood at 40.2 min; in the data set on male Wistar rats (30 mg/kg PO) it was 109.3 min; with male Wistar rats (60 mg/kg PO), 118.9 min. In addition, the “Locomotor Activity Intensity, mean difference from vehicle controls” value in the data set on male Wistar rats (10 mg/kg PO) was 4.5 counts of LMA per minute of EEG-defined wakefulness; in the data set with male Wistar rats (30 mg/kg PO), 3.0 counts of LMA per minute of EEG-defined wakefulness; in the data set on male Wistar rats (60 mg/kg PO), 4.9 counts of LMA per minute of EEG-defined wakefulness. The “Cumulative Time Awake 8-19 hours, mean difference from vehicle controls” value in the data set on male Wistar rats (10 mg/kg PO) was 12.1 min; with male Wistar rats (30 mg/kg PO), -4.1 min; with male Wistar rats (60 mg/kg PO), 2.7 min. The “immobility time in mGlu2+/+ mice” value in data set [1] was “decrease immobility time”. Besides, in data set [2], the “brain and plasma levels of the active di-acid moiety” value is reported as “no increase in exposure levels”.
